ChEMBL document CHEMBL5247640 (J Med Chem, 2023)

Key:
[1] = biological target: T1, Thyroid hormone receptor beta (Homo sapiens, UniProt P10828); test: Agonist activity at human THRbeta transfected in Huh7 cells co-transfected with luciferase reporter plasmid assessed as […] luciferase activity incubated for 16 hrs by Steady-Glo luciferase assay; type: cell-based, Huh-7
T1 sequence (P10828 whole entry): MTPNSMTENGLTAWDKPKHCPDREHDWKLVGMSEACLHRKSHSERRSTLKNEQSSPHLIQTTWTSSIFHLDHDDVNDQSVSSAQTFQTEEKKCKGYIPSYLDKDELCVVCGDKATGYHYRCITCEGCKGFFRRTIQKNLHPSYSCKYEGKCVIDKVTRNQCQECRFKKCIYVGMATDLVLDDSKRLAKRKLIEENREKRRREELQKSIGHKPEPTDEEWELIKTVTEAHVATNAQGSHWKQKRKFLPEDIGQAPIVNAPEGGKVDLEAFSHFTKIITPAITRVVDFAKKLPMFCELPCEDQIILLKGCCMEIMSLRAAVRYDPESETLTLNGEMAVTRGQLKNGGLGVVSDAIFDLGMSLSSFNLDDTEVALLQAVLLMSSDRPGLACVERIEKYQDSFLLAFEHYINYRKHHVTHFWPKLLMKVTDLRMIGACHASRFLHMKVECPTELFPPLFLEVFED

[2] = biological target: T2, Thyroid hormone receptor alpha (Homo sapiens, UniProt P10827); test: Agonist activity at human THRalpha transfected in Huh7 cells co-transfected with luciferase reporter plasmid assessed as […] luciferase activity incubated for 16 hrs by Steady-Glo luciferase assay; type: cell-based, Huh-7
T2 sequence (P10827 whole entry): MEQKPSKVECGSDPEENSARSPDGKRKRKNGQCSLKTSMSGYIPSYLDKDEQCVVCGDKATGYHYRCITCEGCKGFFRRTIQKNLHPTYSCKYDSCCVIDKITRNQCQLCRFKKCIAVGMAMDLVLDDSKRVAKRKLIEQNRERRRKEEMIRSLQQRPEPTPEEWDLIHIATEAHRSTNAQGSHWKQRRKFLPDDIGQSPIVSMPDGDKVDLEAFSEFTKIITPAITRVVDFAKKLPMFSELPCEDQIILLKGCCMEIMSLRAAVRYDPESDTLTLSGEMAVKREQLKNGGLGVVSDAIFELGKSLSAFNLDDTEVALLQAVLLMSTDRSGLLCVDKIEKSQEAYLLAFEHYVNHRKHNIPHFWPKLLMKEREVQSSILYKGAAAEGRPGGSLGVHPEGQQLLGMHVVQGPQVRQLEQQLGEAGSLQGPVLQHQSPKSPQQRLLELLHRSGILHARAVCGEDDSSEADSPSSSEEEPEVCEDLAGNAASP

[3] = Fold of selectivity, ratio of compound EC50/T3 EC50 for THRalpha to ratio of compound EC50/T3 EC50 for THRbeta
[4] = Metabolic stability in rat liver microsomes assessed as intrinsic clearance; type: ADME, Microsome
[5] = Metabolic stability in rat liver microsomes assessed as half life; type: ADME, Microsome
[6] = Toxicity in ICR mouse assessed as decrease in serum total cholesterol level at 30 mg/kg, po administered as single dose measured after 24 hrs by automated biochemical analyzer; type: organism-based; set-up: scale not given: the % may be the effect or the level left; details: in vivo
[7] = Half life in ICR mouse at 30 mg/kg, po measured after 24 hrs by LC-MS/MS analysis; type: ADME, organism-based; details: in vivo
[8] = Metabolic stability in mouse liver microsomes assessed as half life; type: ADME, Microsome
[9] = Metabolic stability in mouse liver microsomes assessed as intrinsic clearance; type: ADME, Microsome
[10] = Metabolic stability in human liver microsomes assessed as intrinsic clearance; type: ADME, Microsome
[11] = Cmax in ICR mouse at 30 mg/kg, po measured after 24 hrs by LC-MS/MS analysis; type: ADME, organism-based; set-up: time 24 hrs, dose 30 mg/kg, route po; details: in vivo
[12] = AUClast in ICR mouse at 30 mg/kg, po measured after 24 hrs by LC-MS/MS analysis; type: ADME, organism-based; set-up: dose 30 mg/kg, time 24 hrs, route po; details: in vivo
[13] = Tmax in ICR mouse at 30 mg/kg, po measured after 24 hrs by LC-MS/MS analysis; type: ADME, organism-based; details: in vivo
[14] = Metabolic stability in human liver microsomes assessed as half life; type: ADME, Microsome

| EC50 [1] | EC50 [2] | Structure (SMILES) | Ratio [3] | also measured |
| --- | --- | --- | --- | --- |
| 200 nM | 740 nM | Cn1c(=O)ccc2c1ccn2-c1c(Cl)cc(-n2nc(C#N)c(=O)[nH]c2=O)cc1Cl | 6 | CLH [4]: 10.2 mL/min/g; half-life [5]: 3.43 h; Activity [6]: 33.5%; half-life [7]: 7 h; half-life [8]: 11.6 h; CLH [9]: 3 mL/min/g; CLH [10]: 11.4 mL/min/g; Cmax [11]: 2170 ng/mL; AUC(0-t) at 24 h [12]: 26000 ng·h/mL; Tmax [13]: 3 h; half-life [14]: 3.07 h |
| > 33000 nM | > 11000 nM | COc1ccc2c(ccn2-c2c(Cl)cc(-n3nc(C#N)c(=O)[nH]c3=O)cc2Cl)c1 | – | – |
| > 3700 nM | > 1200 nM | Cc1cc2c(ccn2-c2c(Cl)cc(-n3nc(C#N)c(=O)[nH]c3=O)cc2Cl)cc1O | – | – |

Continued, compound first:

| Structure (SMILES) | EC50 [1] | EC50 [2] | Ratio [3] | also measured |
| --- | --- | --- | --- | --- |
| CC(C)n1c(=O)ccc2c1ccn2-c1c(Cl)cc(NC(=O)c2noc(=O)[nH]2)cc1Cl | 200 nM | 810 nM | 6.4 | – |
| CC(C)n1c(=O)ccc2c1ccn2-c1c(Cl)cc(-c2n[nH]c(=O)[nH]c2=O)cc1Cl | 40 nM | 40 nM | 1 | – |
| N#Cc1nn(-c2cc(Cl)c(-n3ccc4c3ccc(=O)n4C3CCC3)c(Cl)c2)c(=O)[nH]c1=O | 20 nM | 120 nM | 7.5 | – |
| N#Cc1nn(-c2cc(Cl)c(-n3ccc4c3ccc(=O)n4C3CCCC3)c(Cl)c2)c(=O)[nH]c1=O | 40 nM | 340 nM | 8.1 | – |
| Cc1c(O)ccc2c1ccn2-c1c(Cl)cc(-n2nc(C#N)c(=O)[nH]c2=O)cc1Cl | 30 nM | 50 nM | 2.9 | half-life [7]: 5.87 h; Cmax [11]: 2080 ng/mL; AUC(0-t) at 24 h [12]: 5990 ng·h/mL; Tmax [13]: 0.42 h |
| CCn1c(=O)ccc2c1ccn2-c1c(Cl)cc(-n2nc(C#N)c(=O)[nH]c2=O)cc1Cl | 20 nM | 50 nM | 3.8 | – |
